Earlier results on one compound are cited in patent US20130281457A1, “PHARMACEUTICAL COMPOSITIONS COMPRISING 5-CHLORO-N-(-METHYL)-2-THIOPHENCARBOXAMID” (Ratiopharm GmbH, priority 2008, published 2013).

SMILES strings stand for the structures.

For `O=C(NC[C@H]1CN(c2ccc(N3CCOCC3=O)cc2)C(=O)O1)c1ccc(Cl)s1` [Compound I, 5-Chloro-N-({(5S)-2-oxo-3-[4-(3-oxo-4-morpholinyl)-phenyl]-1,3-oxazolidin-5-yl}-methyl)-2-thiophencarboxamid], the solubility in water entry is reported as “only limited solubility in water”.
